Legend:
Type in all cases: functional
SR [1] = assay: Cytotoxicity against human SR cells assessed as cell growth at 0.01 uM after 48 hrs by SRB assay relative to control; conditions: read-out: Activity
HT-29 [2] = assay: Cytotoxicity against human HT-29 cells assessed as cell growth at 0.01 uM after 48 hrs by SRB assay relative to control; conditions: HT-29, 48 h, read-out: Activity
SNB-19 [3] = assay: Cytotoxicity against human SNB19 cells assessed as cell growth at 0.01 uM after 48 hrs by SRB assay relative to control; conditions: SNB-19, 48 h, read-out: Activity
Malme-3M = assay: Cytotoxicity against human MALME-3M cells assessed as cell growth at 0.01 uM after 48 hrs by SRB assay relative to control; conditions: read-out: Activity
UACC-257 = assay: Cytotoxicity against human UACC257 cells assessed as cell growth at 0.01 uM after 48 hrs by SRB assay relative to control; conditions: UACC-257, 48 h, read-out: Activity
HL-60(TB) = assay: Cytotoxicity against human HL-60(TB) cells assessed as cell growth at 0.1 uM after 48 hrs by SRB assay relative to control; conditions: HL-60, 48 h, read-out: Activity
HCC 2998 [4] = assay: Cytotoxicity against human HCC2998 cells assessed as cell growth at 0.1 uM after 48 hrs by SRB assay relative to control; conditions: HCC 2998, 48 h, read-out: Activity
HCT-15 = assay: Cytotoxicity against human HCT15 cells assessed as cell growth at 0.1 uM after 48 hrs by SRB assay relative to control; conditions: HCT-15, 48 h, read-out: Activity
SW-620 = assay: Cytotoxicity against human SW620 cells assessed as cell growth at 0.1 uM after 48 hrs by SRB assay relative to control; conditions: SW-620, 48 h, read-out: Activity
SNB-19 [5] = assay: Cytotoxicity against human SNB19 cells assessed as cell growth at 0.1 uM after 48 hrs by SRB assay relative to control; conditions: SNB-19, 48 h, read-out: Activity
MDA-MB-435 = assay: Cytotoxicity against human MDA-MB-435 cells assessed as cell growth at 0.1 uM after 48 hrs by SRB assay relative to control; conditions: MDA-MB-435, 48 h, read-out: Activity
OVCAR-3 [6] = assay: Cytotoxicity against human OVCAR3 cells assessed as cell growth at 0.1 uM after 48 hrs by SRB assay relative to control; conditions: OVCAR-3, 48 h, read-out: Activity
OVCAR-8 = assay: Cytotoxicity against human OVCAR8 cells assessed as cell growth at 0.1 uM after 48 hrs by SRB assay relative to control; conditions: OVCAR-8, 48 h, read-out: Activity
NCI/ADR-RES = assay: Cytotoxicity against human NCI-ADR-RES cells assessed as cell growth at 0.1 uM after 48 hrs by SRB assay relative to control; conditions: read-out: Activity
A498 = assay: Cytotoxicity against human A498 cells assessed as cell growth at 0.1 uM after 48 hrs by SRB assay relative to control; conditions: A498, 48 h, read-out: Activity
TK-10 = assay: Cytotoxicity against human TK10 cells assessed as cell growth at 0.1 uM after 48 hrs by SRB assay relative to control; conditions: TK-10, 48 h, read-out: Activity
MDA-MB-468 = assay: Cytotoxicity against human MDA-MB-468 cells assessed as cell growth at 0.1 uM after 48 hrs by SRB assay relative to control; conditions: MDA-MB-468, 48 h, read-out: Activity
SR [7] = assay: Cytotoxicity against human SR cells assessed as cell growth at 1 uM after 48 hrs by SRB assay relative to control; conditions: read-out: Activity
HOP-62 = assay: Cytotoxicity against human HOP62 cells assessed as cell growth at 1 uM after 48 hrs by SRB assay relative to control; conditions: HOP-62, 48 h, read-out: Activity
HOP-92 = assay: Cytotoxicity against human HOP92 cells assessed as cell growth at 1 uM after 48 hrs by SRB assay relative to control; conditions: HOP-92, 48 h, read-out: Activity
NCI-H522 = assay: Cytotoxicity against human NCI-H522 cells assessed as cell growth at 1 uM after 48 hrs by SRB assay relative to control; conditions: NCI-H522, 48 h, read-out: Activity
HT-29 [8] = assay: Cytotoxicity against human HT-29 cells assessed as cell growth at 1 uM after 48 hrs by SRB assay relative to control; conditions: HT-29, 48 h, read-out: Activity
SK-MEL-28 = assay: Cytotoxicity against human SK-MEL-28 cells assessed as cell growth at 1 uM after 48 hrs by SRB assay relative to control; conditions: SK-MEL-28, 48 h, read-out: Activity
OVCAR-3 [9] = assay: Cytotoxicity against human OVCAR3 cells assessed as cell growth at 1 uM after 48 hrs by SRB assay relative to control; conditions: OVCAR-3, 48 h, read-out: Activity
RXF 393 = assay: Cytotoxicity against human RXF393 cells assessed as cell growth at 1 uM after 48 hrs by SRB assay relative to control; conditions: RXF 393, 48 h, read-out: Activity
T47D = assay: Cytotoxicity against human T47D cells assessed as cell growth at 1 uM after 48 hrs by SRB assay relative to control; conditions: read-out: Activity
MOLT-4 = assay: Cytotoxicity against human MOLT4 cells assessed as cell growth at 100 uM after 48 hrs by SRB assay relative to control; conditions: MOLT-4, 48 h, read-out: Activity
HCC 2998 [10] = assay: Cytotoxicity against human HCC2998 cells assessed as cell growth at 100 uM after 48 hrs by SRB assay relative to control; conditions: HCC 2998, 48 h, read-out: Activity
OVCAR-3 [11] = assay: Cytotoxicity against human OVCAR3 cells assessed as cell growth at 100 uM after 48 hrs by SRB assay relative to control; conditions: OVCAR-3, 48 h, read-out: Activity
PC-3 [12] = assay: Cytotoxicity against human PC3 cells assessed as cell growth at 100 uM after 48 hrs by SRB assay relative to control; conditions: PC-3, 48 h, read-out: Activity
MDA-MB-231 = assay: Cytotoxicity against human MDA-MB-231 cells assessed as cell growth at 100 uM after 48 hrs by SRB assay relative to control; conditions: MDA-MB-231, 48 h, read-out: Activity
BT-549 [13] = assay: Cytotoxicity against human BT549 cells assessed as cell growth at 100 uM after 48 hrs by SRB assay relative to control; conditions: BT-549, 48 h, read-out: Activity
SK-MEL-2 = assay: Cytotoxicity against human SK-MEL-2 cells after 48 hrs by SRB assay; conditions: SK-MEL-2, 48 h
ACHN = assay: Cytotoxicity against human ACHN cells after 48 hrs by SRB assay; conditions: for CC50: read-out: LC50 (the source's name)
PC-3 [14] = assay: Cytotoxicity against human PC3 cells after 48 hrs by SRB assay; conditions: PC-3, 48 h
BT-549 [15] = assay: Cytotoxicity against human BT549 cells after 48 hrs by SRB assay; conditions: BT-549, 48 h

For `N#CCCCCCn1cc(C2=C(c3cn(CCCCCC#N)c4ccccc34)C(=O)N(O)C2=O)c2ccccc21`, the growth at 0.01 µM (SR [1]) was 84%, the growth at 0.01 µM (HT-29 [2]) was 100% and the growth at 0.01 µM (SNB-19 [3]) was 97%. For the same compound, the growth at 0.01 µM (Malme-3M) was 100%, the growth at 0.01 µM (UACC-257) was 97% and the growth at 0.1 µM (HL-60(TB)) was 89%. The growth at 0.1 µM (HCC 2998 [4]) was 101%, the growth at 0.1 µM (HCT-15) was 93% and the growth at 0.1 µM (SW-620) was 97%. It also gave a growth at 0.1 µM (SNB-19 [5]) of 95%, a growth at 0.1 µM (MDA-MB-435) of 95% and a growth at 0.1 µM (OVCAR-3 [6]) of 101%. The growth at 0.1 µM (OVCAR-8) was 99%, the growth at 0.1 µM (NCI/ADR-RES) was 92% and the growth at 0.1 µM (A498) was 82%. The growth at 0.1 µM (TK-10) was 95%, the growth at 0.1 µM (MDA-MB-468) was 105% and the growth at 1 µM (SR [7]) was 114%. For the same compound, the growth at 1 µM (HOP-62) was 83%, the growth at 1 µM (HOP-92) was 109% and the growth at 1 µM (NCI-H522) was 85%. The growth at 1 µM (HT-29 [8]) was 106%, the growth at 1 µM (SK-MEL-28) was 103% and the growth at 1 µM (OVCAR-3 [9]) was 101%. For the same compound, the growth at 1 µM (RXF 393) was 98%, the growth at 1 µM (T47D) was 89% and the growth at 100 µM (MOLT-4) was 2%. It also gave a growth at 100 µM (HCC 2998 [10]) of 1%, a growth at 100 µM (OVCAR-3 [11]) of -34% and a growth at 100 µM (PC-3 [12]) of -4%. For the same compound, the growth at 100 µM (MDA-MB-231) was -7%, the growth at 100 µM (BT-549 [13]) was -26% and the GI50 (SK-MEL-2) was 3.38 µM. The LC50 (concentration killing 50% of cells) (SK-MEL-2) was > 100 µM, the TGI (SK-MEL-2) was 14.9 µM and the GI50 (ACHN) was 8.04 µM. For the same compound, the TGI (ACHN) was > 100 µM, the CC50 (ACHN) was > 100 µM and the GI50 (PC-3 [14]) was 3.92 µM. The LC50 (PC-3 [14]) was > 100 µM, the TGI (PC-3 [14]) was 74 µM and the GI50 (BT-549 [15]) was 3.44 µM. The LC50 (BT-549 [15]) was > 100 µM and the TGI (BT-549 [15]) was 24.5 µM.
`Cn1cc(C2=C(c3cn(C)c4ncccc34)C(=O)NC2=O)c2ccccc21` gave a growth at 0.01 µM (SR [1]) of 89%, a growth at 0.01 µM (HT-29 [2]) of 109% and a growth at 0.01 µM (SNB-19 [3]) of 92%. It also gave a growth at 0.01 µM (Malme-3M) of 109%, a growth at 0.01 µM (UACC-257) of 104% and a growth at 0.1 µM (HL-60(TB)) of 99%. It also gave a growth at 0.1 µM (HCC 2998 [4]) of 93%, a growth at 0.1 µM (HCT-15) of 103% and a growth at 0.1 µM (SW-620) of 96%. For the same compound, the growth at 0.1 µM (SNB-19 [5]) was 91%, the growth at 0.1 µM (MDA-MB-435) was 93% and the growth at 0.1 µM (OVCAR-3 [6]) was 111%. It also gave a growth at 0.1 µM (OVCAR-8) of 100%, a growth at 0.1 µM (NCI/ADR-RES) of 96% and a growth at 0.1 µM (A498) of 73%. It also gave a growth at 0.1 µM (TK-10) of 105%, a growth at 0.1 µM (MDA-MB-468) of 96% and a growth at 1 µM (SR [7]) of 51%. The growth at 1 µM (HOP-62) was 87%, the growth at 1 µM (HOP-92) was 76% and the growth at 1 µM (NCI-H522) was 93%. The growth at 1 µM (HT-29 [8]) was 93%, the growth at 1 µM (SK-MEL-28) was 90% and the growth at 1 µM (OVCAR-3 [9]) was 98%. The growth at 1 µM (RXF 393) was 83%, the growth at 1 µM (T47D) was 74% and the growth at 100 µM (MOLT-4) was -24%. For the same compound, the growth at 100 µM (HCC 2998 [10]) was -37%, the growth at 100 µM (OVCAR-3 [11]) was -19% and the growth at 100 µM (PC-3 [12]) was -9%. The growth at 100 µM (MDA-MB-231) was -25%, the growth at 100 µM (BT-549 [13]) was -30% and the GI50 (SK-MEL-2) was 3.2 µM. It also gave a TGI (SK-MEL-2) of 8.28 µM, a GI50 (ACHN) of 2.93 µM and a TGI (ACHN) of 26.2 µM. The CC50 (ACHN) was > 100 µM, the GI50 (PC-3 [14]) was 3.72 µM and the TGI (PC-3 [14]) was 52.9 µM. For the same compound, the GI50 (BT-549 [15]) was 2.36 µM and the TGI (BT-549 [15]) was 8.09 µM.

— ChEMBL document CHEMBL4229455, “Synthesis and anticancer activity of novel bisindolylhydroxymaleimide derivatives with potent GSK-3 kinase inhibition” (Bioorg Med Chem, 2018)
